pIC50: −log10 of the molar value.
Key:
Human LPA1 = target: T1, Human LPA1 (Homo sapiens, UniProt Q92633); assay: LPA1 calcium flux assay; assay type: cell-based; conditions: CHO cells expressing human LPA1, 10 nM LPA; read-out: HLPA1 Ca Flux IC50
T1 construct: the full-length cDNA for human LPA1 was obtained by PCR of the reverse transcription reaction; expressed in transfected cells
Protocol: A 1.1 kb cDNA encoding the human LPA1 receptor was cloned from human lung. Human lung RNA (Clontech Laboratories, Inc. USA) was reverse transcribed using the RETROscript kit (Ambion, Inc.) and the full-length cDNA for human LPA1 was obtained by PCR of the reverse transcription reaction. The nucleotide sequence of the cloned human LPA1 was determined by sequencing and confirmed to be identical to the published human LPA1 sequence (An et al. Biochem. Biophys. Res. Commun. 231:619 (1997). The cDNA was cloned into the pcDNA5/FRT expression plasmid and transfected in CHO cells using lipofectamine 2000 (Invitrogen Corp., USA). Clones stably expressing human LPA1 were selected using hygromycin and identified as cells that show Ca-influx in response to LPA.
Human LPA1 or LPA3 expressing CHO cells are seeded at 20,000-45,000 cells per well in a 96-well poly-D-lysine coated plate one or two days before the assay. Prior to the assay, the cells are washed once with PBS and then cultured in serum-free media overnight. On the day of the assay, a calcium indicator dye (Calcium 4, Molecular Devices) in assay buffer (HBSS with Ca^2+and Mg^2+ and containing 20 mM Hepes and 0.3% fatty-acid free human serum albumin) is added to each well and incubation continued for 1 hour at 37° C. 10 μl of test compounds in 2.5% DMSO are added to the cells and incubation continued at room temperature for 30 minutes. Cells are the stimulated by the addition of 10 nM LPA and intracellular Ca^2+ measured using the Flexstation 3 (Molecular Devices). IC50s are determined using Graphpad prism analysis of drug titration curves.

C57B1/6 mice = assay: Bleomycin-induced lung fibrosis model in mice; assay type: in vivo; conditions: for total lung collagen: chronic setting (14 day bleomycin model)
From the text: Female C57B1/6 mice (Harlan, 25-30 g) are housed 4 per cage, given free access to food and water and allowed to acclimate for at least 7 days prior to test initiation. After the habituation phase, mice are lightly anesthetized with isoflurane (5% in 100% O2) and administered with bleomycin sulfate (0.01-5 U/kg, Henry Schein) via intratracheal instillation (Cuzzocrea S et al. Am J Physiol Lung Cell Mol Physiol. 2007 May; 292(5):L1095-104. Epub 2007 Jan. 12.). Mice are returned to their cages and monitored daily for the duration of the experiment. Test compound or vehicle is delivered po, ip or sc daily. The route and frequency of dosing is based on previously determined pharmacokinetic properties. All animals are sacrificed using inhaled isoflurane 3, 7, 14, 21 or 28 days after bleomycin instillation. Following sacrifice, mice are intubated with a 20 gauge angiocatheter attached to a 1 ml syringe. Lungs are lavaged with saline to obtain bronchoalveolar lavage fluid (BALF) and then removed and fixed in 10% neutral buffered formalin for subsequent histopathological analysis. BALF is centrifuged for 10 min at 800×g to pellet the cells and the cell supernatant removed and frozen at −80° C. for subsequent protein analysis using the DC protein assay kit (Biorad, Hercules, Calif.) and soluble collagen analysis using Sircol (Biocolor Ltd, UK). BALF is analyzed for concentrations of inflammatory, pro-fibrotic and tissue injury biomarkers including transforming growth factor β1, hyaluronic acid, tissue inhibitor of metalloproteinase-1, matrix matelloproteinase-7, connective tissue growth factor and lactate dehydrogenase activity, using commercially available ELISA. The cell pellet is re-suspended in PBS. Total cell counts are then obtained using a Hemavet hematology system (Drew Scientific, Wayne, Pa.) and differential cells counts are determined using Shandon cytospin (Thermo Scientific, Waltham, Mass.). Lung tissue is stained using hematoxylin and eosin (H&E) and trichrome and lung fibrosis is determined by semiquantitative histopathological scoring (Ashcroft T. et al. J. Clin. Path. 1988; 41; 4, 467-470) using light microscopy (10× magnification) and quantitative, computer-assisted densitometry of collagen in lung tissue sections using light microscopy. The data are plotted using Graphpad prism and statistical differences between groups determined.

C57BL/6 mice = assay: Mouse carbon tetrachloride (CCl4)-induced liver fibrosis model; assay type: in vivo; conditions: compared to the untreated group
Protocol: Female C57BL/6 mice (Harlan, 20-25 g) housed 4/cage are given free access to food and water and allowed to acclimate for at least 7 days prior to test initiation. After the habituation phase, mice receive CCl4 (1.0 ml/kg body weight) diluted in corn oil vehicle (100 μL volume) via i.p. injection twice a week for 8 weeks. (Higazi, A. A. et al., Clin Exp Immunol. 2008 April; 152(1):163-73. Epub 2008 Feb. 14.). Control mice receive an equivalent volume of corn oil vehicle only. Test compound or vehicle is delivered po, ip or sc daily. […] Liver tissue homogenates are analyzed for collagen levels using Sircol (Biocolor Ltd, UK). Fixed Liver tissue is stained using hematoxylin and eosin (H&E) and trichrome and liver fibrosis is determined by quantitative, computer-assisted densitometry of collagen in liver tissue sections using light microscopy. Plasma and liver tissue lysates are also analyzed for concentrations of inflammatory, pro-fibrotic and tissue injury biomarkers including transforming growth factor β1, hyaluronic acid, tissue inhibitor of metalloproteinase-1, matrix matelloproteinase-7, connective tissue growth factor and lactate dehydrogenase activity, using commercially available ELISA. The resulting data are plotted using Graphpad prism and statistical differences between groups determined.

T1 sequence (Q92633 whole entry): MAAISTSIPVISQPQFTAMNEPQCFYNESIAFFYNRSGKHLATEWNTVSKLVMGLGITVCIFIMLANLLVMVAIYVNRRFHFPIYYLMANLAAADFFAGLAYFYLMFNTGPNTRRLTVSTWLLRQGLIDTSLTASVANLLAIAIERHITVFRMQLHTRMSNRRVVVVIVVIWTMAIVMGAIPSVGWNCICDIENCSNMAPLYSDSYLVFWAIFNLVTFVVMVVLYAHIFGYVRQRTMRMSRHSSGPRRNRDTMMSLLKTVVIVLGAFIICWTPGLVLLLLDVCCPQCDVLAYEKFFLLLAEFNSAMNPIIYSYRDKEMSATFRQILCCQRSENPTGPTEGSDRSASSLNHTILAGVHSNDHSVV

pIC50 (Human LPA1): > 6.52
SMILES: Cc1noc(-c2ccc(-c3ccc(C4(C(=O)O)CC4)cc3)cc2)c1NC(=O)O[C@H](C)c1ccccc1 [Compound 1, 1-{4′-[3-Methyl-4-((R)-1-phenyl-ethoxycarbonylamino)-isoxazol-5-yl]-biphenyl-4-yl}-cyclopropanecarboxylic acid]
BALF MMP-7 (C57B1/6 mice; 7-day bleomycin model): reduced
BALF TGFβ1 (C57B1/6 mice; 7-day bleomycin model): reduced
BALF collagen (C57B1/6 mice; 7-day bleomycin model): reduced
BALF hyaluronan (C57B1/6 mice; 7-day bleomycin model): reduced
BALF inflammatory cell influx (C57B1/6 mice; 7-day bleomycin model): reduced
BALF protein (C57B1/6 mice; 7-day bleomycin model): reduced
collagen concentration in BALF (C57B1/6 mice; acute setting (3 day)): significantly reduced
total protein concentration in BALF (C57B1/6 mice; acute setting (3 day)): significantly reduced
total lung collagen (C57B1/6 mice; dosed prophylactically (day 0-day 14)): decreased
total lung collagen (C57B1/6 mice; dosed therapeutically (day 3-day 14)): decreased
collagen deposition in the liver (C57BL/6 mice): significantly reduced
liver weight increase (C57BL/6 mice): significantly reduced

From US8273780B2, “Polycyclic antagonists of lysophosphatidic acid receptors” (Amira Pharmaceuticals, Inc., priority 2009, dated 2012)
